Assay [1] concerns HMLER CD24− cells. Put plainly: Cell viability assay (CellTiter-Blue), IC50 assessment. It counts as cell-based, Human. The conditions noted are these: for IC50: Homo sapiens, read-out: IC50 CD24−. The method, then:
(§1) FIG. 1 represents viability of HMLER CD24− cells (full line) and HMLER CD24+ cells (dotted line) at different concentration of salinomycine (1A), AM5 […] or AM13 (1D).
(§2) Cell viability assay was carried out by plating 1000 cells per well in 96-well plates. NAC (2 mM, A9165 Sigma) or DFO (1 mM) were pretreated 2 hours prior to the compound treatment. CellTiter-Blue® Reagent (Promega; G3582) (20 μl/well) was added after 24, 48, or 72 hours treatment and cells were incubated for 1 hour before recording fluorescence (560(20)Ex/590(10)Em) using a Perkin Elmer Wallac 1420 Victor2 Microplate Reader.
Background: Resazurin is reduced to fluorescent resorufin, in cell work by metabolically active cells.

In a further assay the test system is SW480. Put plainly: Cell death IC50, Annexin V-FITC/PI flow cytometry. In kind it is cell-based. The conditions noted are these: Homo sapiens, read-out: IC50 SW480. The method, then: (§3) The cells were seeded in a 6-well plate at density 5.105 cells/well and cultured overnight. The cells were then treated with various concentration (15, 30, 100, 500, 1000 and 10.000 nM) of salinomycine, AM5 and AM23 for 72 h, 96 h and 108 h. After treatment, cell death was quantified using Annexin V-FITC/Propidium Iodide (PI) assay according to the manufacturer's protocol (FITC Annexin V Apoptosis Detection Kit II, 556570, BD Pharmingen™) and analyzed by a LSRFortessa™ flow cytometer (BD Bioscience, San Jose, Calif.). The data were processed using Cell Quest software (BD Biosciences). Dose-response cell death curves were determined for indicated time.
(§4) For tumor cells, the cells are classified in function of their sensitivity of drugs. Here, the most sensitive cells are incubated for 72 h, the middle sensitive cells for 96 h and the less sensitive or resistant cells are incubated for 108 h with drug at several concentrations.
(§5) Concentrations of 30 nM, 500 nm and 1 μM were used for determining the IC50 of drugs.
(§6) Intervals][…]] mean that IC50 is included in this interval with exclusion of the valor 30 nM.
(§7) The SW620 and SW480 cell lines are from colon tumors.
(In flow cytometry, cells or beads pass a laser one at a time.)

The subject of another assay is SW620. Put plainly: Cell death IC50, Annexin V-FITC/PI flow cytometry. In kind it is cell-based. The conditions noted are these: Homo sapiens, read-out: IC50 SW620. On the procedure:
as §3, §4, §5, §6, §7

The subject of the next assay is HMLER ID2. Briefly: Cell death IC50, Annexin V-FITC/PI flow cytometry. In kind it is cell-based. The conditions noted are these: Homo sapiens, read-out: IC50 HMLER ID2. On the procedure: as §3, §4, §5, §6
A further assay relates to HMLER GFP. Briefly: Cell death IC50, Annexin V-FITC/PI flow cytometry. In kind it is cell-based. The following applies: Homo sapiens; 1rst sensibility (72 h). The method, then: as §3, §4, §5, §6
Another assay relates to HMLER shECAD. Briefly: Cell death IC50, Annexin V-FITC/PI flow cytometry. In kind it is cell-based. The conditions noted are these: Homo sapiens, read-out: IC50 HMLER shECAD. On the procedure:
as §3, §4, §5, §6

The test system of another assay is Zr75.1. Put plainly: Cell death IC50, Annexin V-FITC/PI flow cytometry. It counts as cell-based. The conditions noted are these: Homo sapiens, read-out: IC50 Zr75.1. On the procedure: as §3, §4, §5, §6
The test system of another assay is HBL100. Briefly: Cell death IC50, Annexin V-FITC/PI flow cytometry. In kind it is cell-based. The following applies: Homo sapiens. On the procedure:
as §3, §4, §5, §6

A further assay relates to MDA-MD-157. Put plainly: Cell death IC50, Annexin V-FITC/PI flow cytometry. In kind it is cell-based. The following applies: Homo sapiens, read-out: IC50 MDA-MD-157. On the procedure: as §3, §4, §5, §6
For the next assay, the system named is BT549. Briefly: Cell death IC50, Annexin V-FITC/PI flow cytometry. The following applies: Homo sapiens, read-out: IC50 BT549. It counts as cell-based. The method, then:
as §3, §4, §5, §6

The next assay has as its system MDA-MB-134. Briefly: Cell death IC50, Annexin V-FITC/PI flow cytometry. In kind it is cell-based. The conditions noted are these: Homo sapiens, read-out: IC50 MDA-MB-134. The method, then: as §3, §4, §5, §6
In the next assay the test system is MDA-MB-231. Put plainly: Cell death IC50, Annexin V-FITC/PI flow cytometry. The conditions noted are these: Homo sapiens, read-out: IC50 MDA-MB-231. In kind it is cell-based. On the procedure: as §3, §4, §5, §6
The next assay concerns BT474. Briefly: Cell death IC50, Annexin V-FITC/PI flow cytometry. It counts as cell-based. The conditions noted are these: Homo sapiens, read-out: IC50 BT474. On the procedure: as §3, §4, §5, §6
In a further assay the test system is HMLE W2. Briefly: Cell death IC50, Annexin V-FITC/PI flow cytometry. In kind it is cell-based. The conditions noted are these: Homo sapiens, read-out: IC50 HMLE W2. The method, then: as §3, §4, §5, §6
For a further assay, the system named is HMLER CD24low. Put plainly: Cell death IC50, Annexin V-FITC/PI flow cytometry. In kind it is cell-based. The following applies: Homo sapiens, read-out: IC50 HMLER CD24low. On the procedure: as §3, §4, §5, §6
The subject of the next assay is BT20. Put plainly: Cell death IC50, Annexin V-FITC/PI flow cytometry. It counts as cell-based. The conditions noted are these: Homo sapiens, read-out: IC50 BT20. On the procedure: as §3, §4, §5, §6
A further assay has as its system MCF-7. Briefly: Cell death IC50, Annexin V-FITC/PI flow cytometry. In kind it is cell-based. The conditions noted are these: Homo sapiens, read-out: IC50 MCF-7. On the procedure: as §3, §4, §5, §6
The next assay deals with MDA-MB-361. Put plainly: Cell death IC50, Annexin V-FITC/PI flow cytometry. It counts as cell-based. The following applies: Homo sapiens, read-out: IC50 MDA-MB-361. On the procedure: as §3, §4, §5, §6
Another assay concerns T47D. Put plainly: Cell death IC50, Annexin V-FITC/PI flow cytometry. In kind it is cell-based. The conditions noted are these: Homo sapiens, Resistant (108 h). On the procedure:
as §3, §4, §5, §6

In another assay the test system is HMLER CD24+ cells. Put plainly: Cell viability assay (CellTiter-Blue), IC50 assessment. It counts as cell-based. The conditions noted are these: Homo sapiens, read-out: IC50 CD24+. On the procedure:
as §1, §2

A further assay has as its system MDA-MB-231 cells. Put plainly: Dead cells by DIOC6(3)/DAPI test with cathepsine B inhibitor. It counts as cell-based, Human. The following applies: 500 nM; COA74-Me 30 μM; 48 h, 96 h, 108 h. The method, then:
From the treatment, dead cells were assessed by DIOC6(3)/DAPI test and analyzed by flow cytometry.

Assay [2] deals with HMLER CD24− cells. Put plainly: Cell proliferation and formation of mammospheres. It counts as cell-based, Human. The source says:
FIG. 2 is a representative phase contrast photomicrographs of mammospheres formed after 11 days in the absence of any added compound (Control) or in the presence of a defined amount of salinomycine, AM5, AM9 or AM13. […] The size of the mammospheres is correlated with progenitor cell proliferation, whereas the number of mammospheres formed after serial passages at clonal density is correlated with the self-renewal capacity of primitive Cancer Stem Cells. […]
FIG. 9 represents images of the third generation of mammospheres formed from individual HMLER CD24low cells treated during 7 days with the indicated drug. The size of the mammospheres is correlated with progenitor cell proliferation capacity, whereas the number of mammospheres formed after serial passages at clonal density is correlated with the self-renewal capacity of primitive Cancer Stem Cells.
AM5, AM9, AM13 and salinomycine were assessed for their capability to inhibit cell proliferation and formation of mammospheres. […]
AM5 and AM23 and salinomycine were assessed for their capability to inhibit cell proliferation and formation of mammospheres.

[3] abbreviates: third generation of mammospheres, HMLER CD24low cells treated 7 days.

This is an account of results in patent US10287298B2, “Nitrogen-containing analogs of salinomycin, synthesis and use against cancer stem cells and malaria” (Centre National de la Recherche Scientifique (CNRS), priority 2014, dated 2019).

Like-named read-outs stand apart in the source and are kept apart here. A value given as a limit tells only on which side of the number the result lay.

Regarding `CCC(C(=O)O)[C@H]1CC[C@H](C)C([C@@H](C)[C@H](O)[C@H](C)C(=O)[C@H](CC)[C@H]2O[C@]3(C=C[C@@H](O)[C@]4(CC[C@@](C)([C@H]5CC[C@](O)(CC)[C@H](C)O5)O4)O3)[C@H](C)C[C@@H]2C)O1` (stereo partly drawn) [Salinomycine, Salinomycin], the IC50 (as a rule, the concentration at which inhibition is half-maximal) with HMLER CD24− cells [1] is 1.56 µM; in the assay on SW480 (SW480, 108 h), 0.03 to 0.5 µM; in the assay with SW620 (SW-620, 108 h), 0.5 to 1 µM; in the assay on HMLER ID2 (72 h), above 1 µM; with HMLER GFP, 1 µM; in the assay with HMLER shECAD (72 h), 0.03 to 0.5 µM. Moreover, the IC50 in the assay on Zr75.1 (ZR-75-1, 72 h) was 0.5 µM; in the assay on HBL100 (HBL-100, read-out: IC50 HBL100) it was above 1 µM; in the assay with MDA-MD-157 (96 h) it was 1 µM; in the assay on BT549 (BT-549, 108 h) it was above 1 µM; in the assay with MDA-MB-134 (96 h), 0.03 to 0.5 µM; with MDA-MB-231 (MDA-MB-231, 96 h), above 1 µM. Further, the IC50 in the assay on BT474 (BT-474, 96 h) was above 1 µM; in the assay with HMLE W2 it was above 1 µM; with HMLER CD24low (72 h), 0.03 to 0.5 µM; in the assay on BT20 (BT-20, 108 h), 0.5 µM; with MCF-7 (MCF7, 72 h), 0.03 to 0.5 µM; with MDA-MB-361 (MDA-MB-361, 96 h), 0.5 µM. Moreover, the IC50 is above 1 µM in the assay on T47D and 11 µM in the assay with HMLER CD24+ cells. Moreover, the “death of MDA-MB-231 cells in combination with cathepsine B inhibition” value in the assay on MDA-MB-231 cells is listed as “combine themselves to induce the death”. Besides, the size of mammospheres result with HMLER CD24− cells [2] (setting [3]) is “do not alter the tumor diameters”.
Regarding `C#CCN[C@@H]1C=C[C@]2(O[C@H]([C@@H](CC)C(=O)[C@@H](C)[C@@H](O)[C@H](C)C3O[C@@H](C(CC)C(=O)O)CC[C@@H]3C)[C@@H](C)C[C@H]2C)O[C@@]12CC[C@@](C)([C@H]1CC[C@](O)(CC)[C@H](C)O1)O2` (stereo partly drawn) [AM5, Sal-Propargylamine], the IC50 with HMLER CD24− cells [1] (HMLER CD24− cells, cell viability) is 0.0849 µM; in the assay with SW480 (SW480, 3rd sensibility (108 h), colon tumor cells), 0.03 to 0.5 µM; in the assay on SW620 (SW-620, 3rd sensibility (108 h), colon tumor cells), 0.03 to 0.5 µM; in the assay with HMLER ID2 (1rst sensibility (72 h)), above 1 µM; with HMLER GFP it was 1 µM; in the assay on HMLER shECAD (1rst sensibility (72 h)) it was 0.03 to 0.5 µM. For the same compound, the IC50 in the assay on Zr75.1 (ZR-75-1, 1rst sensibility (72 h), ]30-500] excludes 30 nM) is 0.03 to 0.5 µM; in the assay on HBL100 (HBL-100, No tumoral, read-out: IC50 HBL100), above 1 µM; in the assay with MDA-MD-157 (2nd sensibility (96 h)), 0.5 µM; in the assay on BT549 (BT-549, Resistant (108 h)) it was above 1 µM; in the assay on MDA-MB-134 (2nd sensibility (96 h)) it was 0.03 to 0.5 µM; with MDA-MB-231 (MDA-MB-231, 2nd sensibility (96 h)), above 1 µM. Also, the IC50 was above 1 µM in the assay on BT474 (BT-474, 2nd sensibility (96 h)); above 1 µM in the assay with HMLE W2 (Immortalized); below 0.03 µM in the assay on HMLER CD24low (1rst sensibility (72 h)); 0.03 to 0.5 µM in the assay on BT20 (BT-20, 3rd sensibility (108 h)); 0.03 to 0.5 µM with MCF-7 (MCF7, 1rst sensibility (72 h), ]30-500] excludes 30 nM); 0.5 µM in the assay with MDA-MB-361 (MDA-MB-361, 2nd sensibility (96 h)). Moreover, the IC50 with T47D was above 1 µM; with HMLER CD24+ cells (HMLER CD24+ cells, cell viability), 3.51 µM. The “activity against CD24 cells compared with salinomycine” value in the assay with HMLER CD24− cells [1] (comparison of the IC50 results) was “significantly improved activity”. Further, the “death of MDA-MB-231 cells in combination with cathepsine B inhibition” value in the assay on MDA-MB-231 cells is given as “combine themselves to induce the death”. For the same compound, the “inhibition of cell proliferation, efficacy in comparison with salinomycine” value with HMLER CD24− cells [2] (at 30 nM) was “ten-fold improved efficacy”. In the assay on HMLER CD24− cells [2] (mammospheres after 11 days, low nanomolar concentrations), the “number and size of mammosphere” value was “reduced the number and the size of mammosphere”. Also, the number of mammospheres result in the assay with HMLER CD24− cells [2] (setting [3]) is on record as “reduced the number of mammospheres”. Further, the size of mammospheres entry in the assay on HMLER CD24− cells [2] (setting [3]) is “do not alter the tumor diameters”.
